# Values of other authors, collected in patent US6365551B1, “Highly concentrated glyphosate herbicidal compositions” (Monsanto Technology LLC, priority 1990, dated 2002).
# Conditions: glyphosate in acid form
compound,measurement,value
"O=C(O)CNCP(=O)(O)O [glyphosate, N-phosphonomethylglycine]",water solubility,about 1.2%
